Literature values in patent publication US20050201989A1, “Compositions and methods for ex vivo preservation of blood vessels for vascular grafts using inhibitors of tumor necrosis factor-alpha” (St. Camillus Medical, Inc., priority 2004, published 2005).

Tested on: endothelial cells
Settings: general knowledge statement, no test described

SMILES: CCCC(=O)Nc1ncnc2c1ncn2[C@@H]1O[C@@H]2COP(=O)(O)O[C@H]2[C@H]1OC(=O)CCC [db cAMP, dibutyryl adenosine 3′,5′-cyclic monophosphate]
- db cAMP concentration that becomes toxic to endothelial cells: higher than 4 mM
